We go through two substances from patent US9909125B2, “Molecular targets for selective eradication of senescent cells” (Everon Biosciences, Inc., priority 2013, dated 2018).

This data set has as its system senescent human neonatal dermal fibroblasts. Description: Crystal violet staining of shRNA-transduced senescent fibroblasts (FIG. 4). Format: cell-based. As to conditions: lentiviral shRNA, puromycin 72 hours, crystal violet at 20 days; senescence by bleomycin 10 μg/ml 24 hr + 10 days. As for the experimental part: FIG. 4. Effect of selected shRNAs on viability of proliferating and senescent human neonatal dermal fibroblasts. Senescence was induced by treatment with bleomycin (10 μg/ml) for 24 hr followed by incubation for 10 days to establish senescent phenotype. (1) The proliferating and senescent cells were transduced with lentiviruses carrying both shRNA and mCherry constructs. Transduced cells were selected with puromycin for 72 hours and the presence of shRNA construct was confirmed by microscopic detection of mCherry fluorescence (see example of mCherry fluorescence in FIG. 4, panel 1). In 8 days for proliferating and 20 days for senescent cells, the cells were stained with crystal violet dye. The images of the live/dead cells were obtain using a digital camera (panels 2-4).
To confirm universal activity of identified target genes across different senescence models 60 candidate shRNA identified in all primary screenings were transduced to a secondary models of senescence: human diploid dermal fibroblasts induced to senescence by bleomycin treatment (DNA-damage induction) or senescence was induced by replicative exhaustion (replicative senescence).

Take “POU5F1: shRNA coding sequence targeting POU5F1 (DNA TCATTCACTAAGGAAGGAATTGTTAATATTCATAGCAATTCCTTCCTTAGTGAATGA)”: the “effect on viability of senescent cells” value is reported as “critical for viability of senescent cells”. With “FGF1: shRNA coding sequence targeting FGF1 (DNA CCTGATAACAAGTAAGGATATGTTAATATTCATAGCATATCCTTGCTTGTTATCAGG)”, the “effect on viability of senescent cells” value was “critical for viability of senescent cells”.
